Data reported in patent US4822800A (Ortho Pharmaceutical Corporation, priority 1986, dated 1989).
Like-named read-outs stand apart in the source and are kept apart here.

Tests used:
adult mongrel dogs [1] = test: renal vasodilating activity in anesthetized dogs; assay type: in vivo, dog (adult mongrel); conditions: Canis lupus familiaris, renal vasodilator, dose 13.9 mg/kg intravenous, relative to controls; for change in vivo at up to 13.9 mg/kg: read-out: RVR (renal vascular resistance)
Method: Goldberg et al, J. Pharmacol. Exp. Ther., 163, 188 (1968), performed an investigation of the structural requirements for dopamine-like renal vasodilation of phenethylamines and apomorphine. The following procedure is a variation of the assay described in that report.
Adult mongrel dogs were anesthetized and surgically prepared for electromagnetic measurement of renal artery blood flow. A carotid artery was cannulated for measuring arterial blood pressure, and drugs were administered intravenously. Heart rate was monitored with a cardiotachometer. Renal vascular resistance was calculated as the ratio of mean arterial blood pressure/renal artery blood flow. Dopamine was infused intravenously at 3 μg/kg/min for ten minutes (at an infusion rate of about 1 ml/min) to determine responsiveness of each dog to renal dopamine receptor stimulation. Cumulative dose-response data were obtained by infusing a compound of this invention at progressively increasing (usually three-fold) infusion rates, each dose being infused for five minutes. The maximum % increase from pre-drug control in renal artery blood flow (or a decrease in renal vascular resistance) was determined for each infusion dose.
RBF values are percent change in renal blood flow. RVR values are percent change in renal vascular resistance. MABP and HR are percent changes in mean arterial blood pressure and heart rate, respectively, relative to controls.

adult mongrel dogs [2] = test: acute in vivo cardiotonic activity in anesthetized dogs; set-up: species or system dog (adult mongrel); conditions: Canis lupus familiaris, cardiotonic, relative to controls; for change in vivo at 1.875 mg/kg: dose 1.875 mg/kg intravenous; for change in vivo at 0.875 mg/kg: dose 0.875 mg/kg intravenous
Method: The acute in vivo cardiotonic activity of compounds prepared according to the present invention was determined according to a modification of the procedure described by Alousi et al., Circ. Res., 45, 666 (1979).
In particular, adult mongrel dogs were anesthetized with sodium pentobarbital and were artificially respired. Arterial pressure was monitored via a femoral artery, and the pulse pressure was used to trigger a cardiotachometer for heart rate. Left ventricular pressure was determined with a Millar catheter, and dP/dt (the change in ventricular pressure with time) was derived. Cardiac output was determined by measuring ascending aortic blood flow with an electromagnetic flow probe, and myocardial contractile force was measured with a Walton Brodie strain gauge sutured to the right ventricle. Lead II EKG was also recorded.
A standard dose (10 μg/kg/min) of dopamine was administered to assess myocardial responsiveness.
Compounds of the invention were administered by intravenous infusion or bolus […] administration, and the effects on cardiovascular parameters were determined.
Dose related effects of the test compound on blood pressure (BP), heart rate (HR), maximum change in left ventricular pressure with time (dP/dt max),% change in cardiac force (CF) and the increase in mean arterial blood pressure relative to controls (MABP) were compared to pretreatment control values, expressed as a% change and rated for activity.

[3] = read-out: MABP (mean arterial blood pressure)
[4] = read-out: RBF (renal blood flow)
[5] = read-out: dP/dt (maximum change left ventricular pressure with time)

SMILES | change in vivo at 13.9 mg/kg (adult mongrel dogs [1]; read-out: HR (heart rate)) | change in vivo at 13.9 mg/kg (adult mongrel dogs [1]; [3]) | change in vivo at 13.9 mg/kg (adult mongrel dogs [1]; [4]) | change in vivo at up to 13.9 mg/kg (adult mongrel dogs [1]) | change in vivo at 1.875 mg/kg (adult mongrel dogs [2]; read-out: CF (cardiac force)) | change in vivo at 1.875 mg/kg (adult mongrel dogs [2]; read-out: HR (heart rate)) | change in vivo at 1.875 mg/kg (adult mongrel dogs [2]; [3]) | change in vivo at 1.875 mg/kg (adult mongrel dogs [2]; [5]) | change in vivo at 0.875 mg/kg (adult mongrel dogs [2]; read-out: CF (cardiac force)) | change in vivo at 0.875 mg/kg (adult mongrel dogs [2]; read-out: HR (heart rate)) | change in vivo at 0.875 mg/kg (adult mongrel dogs [2]; [3]) | change in vivo at 0.875 mg/kg (adult mongrel dogs [2]; [5])
COc1cc2c(C)nc(O)c(CCC(=O)O)c2cc1OC [Compound E, 4-β-Carboxyethyl-3-hydroxy-6,7-dimethoxy-1-methylisoquinoline] | 11% | -7% | 7% | -13% | 75% | 5% | -3% | 42% | – | – | – | –
Cc1nc(O)cc2ccc(O)c(O)c12 [Compound I] | 38% | -4% | 35% | -29% | – | – | – | – | – | – | – | –
COc1cc2c(C)nc(O)c(CCC(=O)OC(C)C)c2cc1OC [Compound R, 4-β-Carboisopropoxyethyl-3-hydroxy-6,7-dimethoxy-1-methylisoquinoline] | – | – | – | – | 22% | 3% | -6% | 15% | – | – | – | –
COC(=O)CCc1c(O)nc(C)c2cc3c(cc12)OCO3 [L] | – | – | – | – | – | – | – | – | 131% | 38% | -21% | 118%
CCCc1nc(O)c(CCC(=O)OC)c2cc(OC)c(OC)cc12 [M] | – | – | – | – | 17% | 2% | -4% | 19% | – | – | – | –
COC(=O)CCc1c(O)nc(C(C)C)c2cc(OC)c(OC)cc12 [P] | – | – | – | – | 15% | 7% | 3% | 17% | – | – | – | –
CCOC(=O)CCc1c(O)nc(C)c2cc(OC)c(OC)cc12 [S] | – | – | – | – | – | – | – | – | 60% | 8% | -4% | 20%
COc1cc2c(C)nc(O)c(CCC(=O)OC3CCCC3)c2cc1OC [T] | – | – | – | – | – | – | – | – | 23% | 9% | -3% | 29%
COC(=O)CCc1c(O)ncc2cc3c(cc12)OCO3 [U] | – | – | – | – | 26% | 6% | 0% | 28% | – | – | – | –
CNC(=O)CCc1c(O)nc(C)c2cc(OC)c(OC)cc12 [X] | – | – | – | – | – | – | – | – | 40% | 4% | -5% | 24%
